Here are results for 24 compounds from patent US5990346A, “Prostaglandins and processes for production thereof” (Teijin Limited, priority 1995, dated 1999).

Molecules are shown by their SMILES.

As a reminder, the IC50 is the concentration that inhibits the measured activity by half.

Assay [1] concerns THP-1 cells (cell migration caused by MCP-1). Description: Inhibitory activity of cell migration caused by MCP-1 (microchemotaxis chamber). It counts as cell-based. The settings on record: recombinant human MCP-1 20 ng/ml, 37° C. As for the experimental part: Measurement of Inhibitory Activity of Cell Migration Caused by MCP-1
To evaluate the activity of the test compounds listed in the following table in inhibiting cell migration, the cell migration caused by the monocyte chemotactic protein MCP-1/MCAF was measured using human premonocyte-derived leukemia cells THP-1 (ATCCTIB203) as migrating cells and the method of FALK et al. (J. Immunol. Methods, vol. 33, pp. 239 to 247 (1980)) as follows. That is, to the upper chamber (200 μl) of a 96-well microchemotaxis chamber (made by Neuroprobe Co.) was added 2×10^6 /ml THP-1 cells (10% fetal calf serum (FCS) containing RPMI-1640 medium (made by Flow Laboratories Co.), while to the lower chamber (35 μl) was placed recombinant human MCP-1 (made by Peprotech Co.) diluted by the same solution to give a final concentration of 20 ng/ml. Between the two chambers, a polycarbonate filter (pore size 5 μm, PVP-free, made by Neuroprobe Co.) was affixed. Incubation was performed at 37° C. in the presence of 5% CO2 for 2 hours. The filter was taken out and the cells migrating to the lower surface of the filter were immobilized and stained by a DiffQuick solution (made by Kokusai Shiyaku Co.) Next, a Breedmeter (made by Molecular Device Co.) was used for measurement at a measurement wavelength of 550 nm and the mean value of three wells was found and used as an indicator of the number of migrating cells. At this time, the test compound was added to the upper chamber together with THP-1 cells in various concentrations to find the cell migration inhibitory activity. The cell migration inhibition % was found by dividing the (number of migrating cells caused by MCP-1 added to the lower chamber in the case of addition of the test compound to the upper chamber)-(number of migrating cells in the case of no test compound added to the upper chamber and no MCP-1 added to the lower chamber) by (number of migrating cells caused by MCP-1 added to the lower chamber in the case of no test compound added to the upper chamber)-(number of migrating cells in the case of no test compound added to the upper chamber and no MCP-1 added to the lower chamber).

Assay [2] has as its system platelets (platelet aggregation). Put plainly: Inhibitory activity of platelet aggregation in rats. Type of assay: cell-based, Wistar rats (male). Conditions: rat platelet rich plasma; 100 μM adenosine 2-phosphoric acid (5 μl) induced; 37° C.; read-out: Activity Suppressing Platelet Aggregation (Rats) IC50. As for the experimental part: Measurement of Inhibitory Activity of Platelet Aggregation in Rats
Wistar rats (male, approximately 400 g) were made to fast for 1 day, then the entire blood was taken from the abdominal artery under anesthesia by ether. To this was added a 3.8% aqueous solution of sodium citrate in a 1/10 amount followed by immediate mixture. This was centrifuged at 1000 rpm for 10 minutes. The top layer was used as the platelet rich plasma. The bottom layer was centrifuged at 3000 rpm for 10 minutes and the top layer was used as the platelet poor plasma. The platelet rich plasma was diluted by the platelet poor plasma to give a platelet count of […]. This was used for the measurement. Note that the platelets were measured using an automatic blood cell counter MEK-4500 (Nihon Koden). The platelet aggregation was measured by measuring the turbidity using an NBS HEMATRACER 801 (M. C. Medical). 90 μl of the platelets were placed in cuvettes, then 5 μl of the different test compounds were added to give the target final concentration, then these were heated for 1 minute at 37° C., then 5 μl of an aqueous solution of 100 μM adenosine 2-phosphoric acid (M. C. Medical) was added to cause platelet aggregation. The activity inhibiting aggregation was found from the following formula: […]
Aggregation inhibiting rate (%)
={1-(maximum change in turbidity at time of addition of test compound)
.div.(maximum change in turbidity at time of no addition of test compound)}

The test system of assay [3] is thickening of intima of carotid artery of rat. Description: Thickening of intima of carotid artery of rat due to balloon catheter. Type of assay: in vivo, Male Wistar rats. The settings on record: 3.2 μg/rat/hr subcutaneously. As for the experimental part: Thickening of Intima of Carotid Artery of Rat Due to Balloon Catheter
The test was performed in the following manner in accordance with the method of Crose et al. (Lab. Invest., vol. 49, p. 206, 1983). Male Wistar rats having a body weight of 300 to 350 g were used. The neck of each rat was opened under anesthesia by sodium pentobarbitol, then a balloon catheter (Fogarty, 2F) was inserted from the right external carotid artery, until the starting portion of the common carotid artery. The balloon was expanded by physiological saline to such an extent causing a light resistance, then the catheter was pulled out in that state up to the carotid artery to give trauma to the intima. This procedure was repeated three times, then the catheter was withdrawn and the external carotid artery was sewn up. After 14 days, the chest was opened under anesthesia by diethyl ether, refluxing was performed from the aorta by a Carnoa solution (methanol:chloroform:acetic acid=6:3:1), then the right common carotid artery was excised and immobilized by neutral formalin solution. The immobilized carotid artery was dyed by Elasticavan Gieson dye, then the areas of the Media and thickened portion of the Intima were measured by an image resolution device (LUZEX2D). […]

For assay [4], the system named is vascular smooth muscle cells (cell migration caused by PDGF). Put plainly: Inhibitory activity of cell migration caused by PDGF (Transwell chamber). Type of assay: cell-based. Conditions: human PDGF 10 ng/ml, 37° C., 6 hours. The protocol: Measurement of Inhibitory Activity of Cell Migration Caused by PDGF
To evaluate the activity of the test compounds listed in the following table to inhibit cell migration caused by PDGF, the migrating cells caused by human platelet derived growth factor (PDGF) were measured in the following way using the vascular smooth muscle cells derived from normal human arteries (made by Kurabo) and according to the method of MaCarthy et al. (J. Cell. Biol. 97, 772-777 (1983)). That is, a Transwell Chamber (Costar Co., registered trademark) was used to measure the inhibitory action. The chamber was divided into two layers, upper and lower, by a 8 μm pore size membrane filter (PVP-free polycarbonate filter, Nucleopore Co., registered trademark). […] The cells on the upper surface of the filter were removed by wiping with a cotton swab and the cells that had migrated to the lower surface of the filter were counted under a high output microscope (×200). Usually, five fields were counted per filter. […]

For the compound `COC(=O)CCCCCSC1=CC[C@@H](O)[C@@H]1/C=C/[C@@H](O)Cc1ccccc1`, in assay [1] (Homo sapiens, THP-1, 2 h), the IC50 turned out to be 380 nM.

Regarding `CCCC[C@@H](C)C[C@H](O)/C=C/[C@@H]1C(SCCCCCC(=O)OC)=CC[C@H]1O` [drawing 89], the IC50 in assay [1] (Homo sapiens, THP-1, 2 h) amounted to 13 nM. Turning to `CCCC[C@@H](C)C[C@H](O)/C=C/[C@@H]1C(SCCCCCC(=O)OC)=C(C)C[C@H]1O` [drawing 103], the IC50 in assay [2] turned out to be 4500 nM. In the case of `COC(=O)CCCCCSC1=C(C2CC2)C[C@@H](O)[C@@H]1/C=C/C(O)Cc1ccccc1` (single isomer, unassigned), in assay [1] (Homo sapiens, THP-1, 2 h), the IC50 was 200 nM. On the same count and under the same terms, next, `CCCC[C@@H](C)C[C@H](O)/C=C/[C@@H]1C(SCCCCCC(=O)OC)=C(C)C[C@H]1O` [drawing 82]: 26 nM.

Consider `CCCC[C@@H](C)C[C@H](O)/C=C/[C@@H]1C(SCCCCCC(=O)OC)=CC[C@H]1O` [Example 28, methyl (11R,12S,13E,15S,17R)-11,15-dihydroxy-17,20-dimethyl-7-thiaprosta-8,13-dienoate], for which the “Intima/media (Average ± standard error)” value in assay [3] (3 days before to 11 days after surgery, measured after 14 days, control 0.935 ± 0.377) turned out to be 0.702 ± 0.241. For the same compound, in assay [3] ((1-T/C)×100, vs control group), the “Suppression Rate (intima thickening suppression rate)” value came out at 25%. On to `COC(=O)CCCCCSC1=C(C)C[C@@H](O)[C@@H]1/C=C/C(O)Cc1ccccc1` (single isomer, unassigned) [drawing 93], for which the IC50 in assay [1] (2 hours) worked out at 10 nM.

For `CCCCCC1=C(SCCCCCC(=O)OC)[C@@H](/C=C/[C@@H](O)C[C@H](C)CCCC)[C@H](O)C1`, the IC50 in assay [1] (Homo sapiens, THP-1, 2 h) amounted to 450 nM. Regarding `COC(=O)CCCCCCC1=C(C)C[C@@H](O)[C@@H]1/C=C/C(O)Cc1ccccc1` (single isomer, unassigned), the IC50 in assay [1] (Homo sapiens, THP-1, 2 h) came to 65 nM. `CCCC[C@@H](C)C[C@H](O)/C=C/[C@@H]1C(SCCCCCC(=O)OC)=C(C(F)(F)F)C[C@H]1O`: in assay [1] (Homo sapiens, THP-1, 2 h), the IC50 turned out to be 2500 nM.

Consider `CCCC[C@@H](C)C[C@H](O)/C=C/[C@@H]1C(SCCCCCC(=O)O)=C(C)C[C@H]1O`, for which the IC50 in assay [1] (Homo sapiens, THP-1, 2 h) was 72 nM. For `CCCC[C@@H](C)C[C@H](O)/C=C/[C@@H]1C(SCCCCCC(=O)OC)=CC[C@H]1O` [drawing 104], the IC50 in assay [2] was 760 nM.

For `COC(=O)CCCCCSC1=C(C)C[C@@H](O)[C@@H]1CCC(O)Cc1ccccc1` (some centres unmarked), the IC50 in assay [1] (Homo sapiens, THP-1, 2 h) was 120 nM. Regarding `CCCC[C@@H](C)C[C@H](O)/C=C/[C@@H]1C(SCCCCCC(=O)OC)=C(C=O)C[C@H]1O`, the IC50 in assay [1] (Homo sapiens, THP-1, 2 h) came to 190 nM. Same read-out and setting: for `CCCC[C@@H](C)C[C@H](O)/C=C/[C@@H]1C(SCCCCCC(=O)O)=CC[C@H]1O` [drawing 90] the value was 150 nM; for `CCCC[C@@H](C)C[C@H](O)/C=C/[C@@H]1C(SCCCCCC(=O)OC)=C(C(C)=O)C[C@H]1O`, 210 nM; for `CCCC[C@@H](C)C[C@H](O)/C=C/[C@@H]1C(SCCCCCC(=O)OC)=C(CCC(C)(C)C)C[C@H]1O`, 600 nM. On to `CC1=C(SCCCCCC(=O)O)[C@@H](/C=C/C(O)Cc2ccccc2)[C@H](O)C1` (single isomer, unassigned) [Example 34], for which the 50% inhibitory concentration (IC50) was found to be 73 nM in assay [4] and 16 nM in assay [1] (Homo sapiens, THP-1, 2 h).

For the compound `COC(=O)CCCCCSC1=C(C)CCC1/C=C/[C@@H](O)Cc1ccccc1` (single isomer, unassigned), the IC50 in assay [1] (Homo sapiens, THP-1, 2 h) turned out to be 15 nM.

Turning to `COC(=O)CCCCCSC1=C(C)C[C@@H](O)[C@@H]1/C=C/C(O)Cc1ccccc1` (single isomer, unassigned) [drawing 100], in assay [4], the IC50 amounted to 81 nM. As for `COC(=O)COCCCSC1=C(C)C[C@@H](O)[C@@H]1/C=C/C(O)Cc1ccccc1` (single isomer, unassigned), the IC50 in assay [1] (Homo sapiens, THP-1, 2 h) stood at 360 nM. Consider `CCCC[C@@H](C)C[C@H](O)/C=C/[C@@H]1C(SCCCCCC(=O)O)=CC[C@H]1O` [drawing 105], for which the IC50 in assay [2] was 2200 nM.

`CCCC[C@@H](C)C[C@H](O)/C=C/[C@@H]1C(SCCCCCC(=O)OC)=C(C(=O)OC)C[C@H]1O`: the IC50 in assay [1] (Homo sapiens, THP-1, 2 h) came to 470 nM.

On to `COC(=O)CCCCCSC1=C(C)C[C@@H](O)[C@@H]1/C=C/C(O)Cc1ccccc1` (single isomer, unassigned) [drawing 92], for which the 50% inhibitory concentration (IC50) in assay [1] (2 hours) is 210 nM.
